Molecular target: T1, Diacylglycerol O-acyltransferase 2 (Homo sapiens, UniProt Q96PD7)
T1 sequence (Q96PD7 whole entry): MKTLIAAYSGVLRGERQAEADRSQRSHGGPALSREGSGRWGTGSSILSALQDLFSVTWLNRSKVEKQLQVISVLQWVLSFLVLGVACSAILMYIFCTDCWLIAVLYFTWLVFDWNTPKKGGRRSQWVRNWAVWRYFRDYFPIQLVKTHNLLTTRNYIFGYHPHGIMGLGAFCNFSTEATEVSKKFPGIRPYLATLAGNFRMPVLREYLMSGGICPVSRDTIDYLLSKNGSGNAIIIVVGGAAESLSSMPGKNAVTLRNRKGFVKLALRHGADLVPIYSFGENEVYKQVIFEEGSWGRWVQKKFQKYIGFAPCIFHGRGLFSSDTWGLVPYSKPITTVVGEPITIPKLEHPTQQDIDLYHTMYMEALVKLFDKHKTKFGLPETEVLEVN
Experiment: Enzymatic Activity Assay: DGAT2 activity was determined by measuring the amount of enzymatic product triolein (1,2,3-Tri(cis-9-octadecenoyl)glycerol) using the membrane prep mentioned above.The assay was carried out in deep well 384 plates in a final volume of 40 μL at room temperature. The assay mixture contained the following: assay buffer (100 mM Tris.Cl, pH 7.0, 20 mM MgCl2, 5% ethanol), 25 μM of diolein, 10 μM of oleoyl-CoA and 10 ng/μL of DGAT2 membrane.

Row | SMILES | IC50
1 | COC(=O)c1cccc(-c2ccc(CNC(=O)Nc3cccc(Cl)c3Cl)c3cnccc23)c1 | 1.96 µM
2 | COc1cccc(-c2ccc(CNC(=O)Cc3ccccc3Cl)c3cnccc23)c1 | 1.99 µM
3 | COc1cccc(-c2ccc(CNC(=O)c3ccccc3CN3C=C(O)ON3)c3cnccc23)c1 | 4.2 µM
4 | COc1cccc(-c2ccc(CNC(=O)c3ncc(Br)cn3)c3cnccc23)c1 | 3.39 µM
5 | CCOC(=O)CCc1ccc(CNC(=O)Nc2cccc(Cl)c2Cl)c2cnccc12 | 7.61 µM
6 | COc1cccc(-c2ccc(CNC(=O)Nc3cccc(Cl)c3Cl)c3ncccc23)c1 | 9.02 µM
7 | COc1cccc(-c2ccc(CNC(=O)Cc3cncc(Br)c3)c3cnccc23)c1 | 7.13 µM

From ChEMBL document CHEMBL5726647, “Isoquinoline derivatives useful as inhibitors of diacylglyceride O-acyltransferase 2” (2017)
